Reference: ChEMBL document CHEMBL3885861, “Open TG-GATES”

Species on record: Rattus norvegicus
Experiment: Open TG-GATES - Regimen: Daily Repeat
Format: toxicity, organism-based, Sprague-Dawley
Design: regimen Daily Repeat, gender Male, age 6 weeks
Conditions: in vivo, po, route gavage; for APTT / Bas / Eos / Fbg / Hb / Ht / Lym / MCH / MCHC / MCV / Mono / Neu / PT / Plat / RBC / Ret / WBC: tissue Blood; for KIDNEY_L / KIDNEY_R / KIDNEY_TOTAL: tissue Kidney; for LIVER: tissue Liver; for A/G / ALP / ALT / AST / BUN / CRE / Ca / Cl / DBIL / GLC / IP / K / LDH / Na / PL / RALB / TBIL / TC / TG / TP / gamma-GTP: tissue Plasma
[1] = 80 mg/kg, 72 h, dose level Middle, time 3 day
[2] = 80 mg/kg, […], dose level Middle, time 7 day
[3] = 80 mg/kg, […], dose level Middle, time 14 day
[4] = 80 mg/kg, […], dose level Middle, time 28 day
[5] = 250 mg/kg, 72 h, dose level High, time 3 day
[6] = 250 mg/kg, […], dose level High, time 7 day
[7] = 250 mg/kg, […], dose level High, time 14 day
[8] = 250 mg/kg, […], dose level High, time 28 day

CCSCC[C@H](N)C(=O)O [ETHIONINE]
TERMINAL_BW [1]: 221.5 g
APTT [1]: 24.9 s
Bas [1]: 0%
Eos [1]: 1%
Fbg [1]: 201 mg/dL
Hb [1]: 14 g/dL
Ht [1]: 41.5%
Lym [1]: 85.4%
MCH [1]: 20.9 pg
MCHC [1]: 33.7%
MCV [1]: 62.1 fL
Mono [1]: 2.8%
Neu [1]: 9.6%
PT [1]: 15.3 s
Plat [1]: 123 x10_4/uL
RBC [1]: 669.2 x10_4/ul
Ret [1]: 4.8%
WBC [1]: 93.2 x10_2/uL
KIDNEY_L [1]: 1 g
KIDNEY_R [1]: 1 g
KIDNEY_TOTAL [1]: 2 g
LIVER [1]: 9.7 g
A/G [1]: 1.8
ALP [1]: 983 IU/L
ALT [1]: 37.8 IU/L
AST [1]: 65.6 IU/L
BUN [1]: 17.2 mg/dL
CRE [1]: 0.4 mg/dL
Ca [1]: 10.5 mg/dL
Cl [1]: 102 meq/L
DBIL [1]: 0.088 mg/dL
GLC [1]: 197.8 mg/dL
IP [1]: 8.2 mg/dL
K [1]: 3.8 meq/L
LDH [1]: 211 IU/L
Na [1]: 141.6 meq/L
PL [1]: 118.2 mg/dL
RALB [1]: 3.6 g/dL
TBIL [1]: 0.2 mg/dL
TC [1]: 47.2 mg/dL
TG [1]: 94.8 mg/dL
TP [1]: 5.7 g/dL
gamma-GTP [1]: 1.2 IU/L
TERMINAL_BW [2]: 252.3 g
TERMINAL_BW [3]: 307.2 g
TERMINAL_BW [4]: 355.5 g
APTT [2]: 25.7 s
Bas [2]: 0%
Eos [2]: 0.8%
Fbg [2]: 216.4 mg/dL
Hb [2]: 14.2 g/dL
Ht [2]: 41.8%
Lym [2]: 81.8%
MCH [2]: 20.8 pg
MCHC [2]: 33.9%
MCV [2]: 61.4 fL
Mono [2]: 2%
Neu [2]: 14.4%
PT [2]: 15 s
Plat [2]: 120.9 x10_4/uL
RBC [2]: 681.2 x10_4/ul
Ret [2]: 3.1%
WBC [2]: 117.7 x10_2/uL
APTT [3]: 24 s
Bas [3]: 0%
Eos [3]: 1%
Fbg [3]: 214.6 mg/dL
Hb [3]: 14.4 g/dL
Ht [3]: 42%
Lym [3]: 73%
MCH [3]: 20.3 pg
MCHC [3]: 34.1%
MCV [3]: 59.4 fL
Mono [3]: 3%
Neu [3]: 23%
PT [3]: 14.2 s
Plat [3]: 121.6 x10_4/uL
RBC [3]: 708.4 x10_4/ul
Ret [3]: 4.1%
WBC [3]: 143.7 x10_2/uL
APTT [4]: 23.9 s
Bas [4]: 0%
Eos [4]: 0.6%
Fbg [4]: 197 mg/dL
Hb [4]: 15 g/dL
Ht [4]: 43.1%
Lym [4]: 78.6%
MCH [4]: 19.7 pg
MCHC [4]: 34.9%
MCV [4]: 56.3 fL
Mono [4]: 2.4%
Neu [4]: 17.6%
PT [4]: 14.6 s
Plat [4]: 114.3 x10_4/uL
RBC [4]: 765.2 x10_4/ul
Ret [4]: 1.8%
WBC [4]: 115.9 x10_2/uL
KIDNEY_L [2]: 1.1 g
KIDNEY_R [2]: 1.1 g
KIDNEY_TOTAL [2]: 2.2 g
KIDNEY_L [3]: 1.2 g
KIDNEY_R [3]: 1.2 g
KIDNEY_TOTAL [3]: 2.3 g
KIDNEY_L [4]: 1.3 g
KIDNEY_R [4]: 1.3 g
KIDNEY_TOTAL [4]: 2.7 g
LIVER [2]: 10.5 g
LIVER [3]: 13.2 g
LIVER [4]: 14.1 g
A/G [2]: 1.8
ALP [2]: 1213.6 IU/L
ALT [2]: 37.4 IU/L
AST [2]: 68.6 IU/L
BUN [2]: 17.6 mg/dL
CRE [2]: 0.4 mg/dL
Ca [2]: 10.4 mg/dL
Cl [2]: 103.6 meq/L
DBIL [2]: 0.1 mg/dL
GLC [2]: 186.6 mg/dL
IP [2]: 7.3 mg/dL
K [2]: 3.8 meq/L
LDH [2]: 193.2 IU/L
Na [2]: 141.6 meq/L
PL [2]: 126.6 mg/dL
RALB [2]: 3.6 g/dL
TBIL [2]: 0.2 mg/dL
TC [2]: 46.4 mg/dL
TG [2]: 122.6 mg/dL
TP [2]: 5.5 g/dL
gamma-GTP [2]: 0.8 IU/L
A/G [3]: 1.8
ALP [3]: 894 IU/L
ALT [3]: 33 IU/L
AST [3]: 58 IU/L
BUN [3]: 16.6 mg/dL
CRE [3]: 0.4 mg/dL
Ca [3]: 10.4 mg/dL
Cl [3]: 102.4 meq/L
DBIL [3]: 0.098 mg/dL
GLC [3]: 201.8 mg/dL
IP [3]: 7.3 mg/dL
K [3]: 3.4 meq/L
LDH [3]: 187.8 IU/L
Na [3]: 141.4 meq/L
PL [3]: 141.8 mg/dL
RALB [3]: 3.8 g/dL
TBIL [3]: 0.2 mg/dL
TC [3]: 55.4 mg/dL
TG [3]: 128 mg/dL
TP [3]: 5.9 g/dL
gamma-GTP [3]: 0.8 IU/L
A/G [4]: 1.7
ALP [4]: 747.8 IU/L
ALT [4]: 30.2 IU/L
AST [4]: 55.8 IU/L
BUN [4]: 19.4 mg/dL
CRE [4]: 0.5 mg/dL
Ca [4]: 10.2 mg/dL
Cl [4]: 105.8 meq/L
DBIL [4]: 0.1 mg/dL
GLC [4]: 187.4 mg/dL
IP [4]: 6.7 mg/dL
K [4]: 3.7 meq/L
LDH [4]: 220.4 IU/L
Na [4]: 142.6 meq/L
PL [4]: 138.6 mg/dL
RALB [4]: 3.8 g/dL
TBIL [4]: 0.2 mg/dL
TC [4]: 57.4 mg/dL
TG [4]: 124 mg/dL
TP [4]: 6 g/dL
gamma-GTP [4]: 1 IU/L
TERMINAL_BW [5]: 209.1 g
APTT [5]: 27.3 s
Bas [5]: 0%
Eos [5]: 1%
Fbg [5]: 204.2 mg/dL
Hb [5]: 15.1 g/dL
Ht [5]: 43.9%
Lym [5]: 87%
MCH [5]: 21.5 pg
MCHC [5]: 34.3%
MCV [5]: 62.9 fL
Mono [5]: 2.4%
Neu [5]: 8.8%
PT [5]: 16.2 s
Plat [5]: 114.9 x10_4/uL
RBC [5]: 698.8 x10_4/ul
Ret [5]: 4%
WBC [5]: 108.9 x10_2/uL
KIDNEY_L [5]: 0.9 g
KIDNEY_R [5]: 0.9 g
KIDNEY_TOTAL [5]: 1.9 g
LIVER [5]: 8.7 g
A/G [5]: 1.9
ALP [5]: 1059.2 IU/L
ALT [5]: 42 IU/L
AST [5]: 73.2 IU/L
BUN [5]: 15.8 mg/dL
CRE [5]: 0.4 mg/dL
Ca [5]: 10.4 mg/dL
Cl [5]: 102 meq/L
DBIL [5]: 0.09 mg/dL
GLC [5]: 183.8 mg/dL
IP [5]: 8.3 mg/dL
K [5]: 3.8 meq/L
LDH [5]: 236.4 IU/L
Na [5]: 140 meq/L
PL [5]: 94 mg/dL
RALB [5]: 3.5 g/dL
TBIL [5]: 0.2 mg/dL
TC [5]: 36.6 mg/dL
TG [5]: 40.4 mg/dL
TP [5]: 5.5 g/dL
gamma-GTP [5]: 0.8 IU/L
TERMINAL_BW [6]: 226 g
TERMINAL_BW [7]: 268.3 g
TERMINAL_BW [8]: 314.2 g
APTT [6]: 28 s
Bas [6]: 0%
Eos [6]: 0.4%
Fbg [6]: 210.4 mg/dL
Hb [6]: 15.1 g/dL
Ht [6]: 44.3%
Lym [6]: 83.4%
MCH [6]: 20.9 pg
MCHC [6]: 34%
MCV [6]: 61.6 fL
Mono [6]: 2.2%
Neu [6]: 13.6%
PT [6]: 15.5 s
Plat [6]: 87.8 x10_4/uL
RBC [6]: 720.4 x10_4/ul
Ret [6]: 1%
WBC [6]: 122.2 x10_2/uL
APTT [7]: 26 s
Bas [7]: 0%
Eos [7]: 0.6%
Fbg [7]: 205.4 mg/dL
Hb [7]: 14.3 g/dL
Ht [7]: 42.2%
Lym [7]: 75.8%
MCH [7]: 19.9 pg
MCHC [7]: 34%
MCV [7]: 58.5 fL
Mono [7]: 2.6%
Neu [7]: 20.2%
PT [7]: 15.4 s
Plat [7]: 100.5 x10_4/uL
RBC [7]: 722.2 x10_4/ul
Ret [7]: 3.8%
WBC [7]: 133.6 x10_2/uL
APTT [8]: 27.8 s
Bas [8]: 0%
Eos [8]: 0.6%
Fbg [8]: 200.6 mg/dL
Hb [8]: 15.9 g/dL
Ht [8]: 45.4%
Lym [8]: 77%
MCH [8]: 19.4 pg
MCHC [8]: 35%
MCV [8]: 55.4 fL
Mono [8]: 2.2%
Neu [8]: 19.6%
PT [8]: 16.1 s
Plat [8]: 95.1 x10_4/uL
RBC [8]: 820.2 x10_4/ul
Ret [8]: 1.6%
WBC [8]: 91.7 x10_2/uL
KIDNEY_L [6]: 1 g
KIDNEY_R [6]: 1 g
KIDNEY_TOTAL [6]: 2 g
KIDNEY_L [7]: 1.1 g
KIDNEY_R [7]: 1.1 g
KIDNEY_TOTAL [7]: 2.3 g
KIDNEY_L [8]: 1.1 g
KIDNEY_R [8]: 1.1 g
KIDNEY_TOTAL [8]: 2.3 g
LIVER [6]: 9.3 g
LIVER [7]: 10.5 g
LIVER [8]: 11.6 g
A/G [6]: 2
ALP [6]: 1237 IU/L
ALT [6]: 44 IU/L
AST [6]: 62.8 IU/L
BUN [6]: 16.6 mg/dL
CRE [6]: 0.4 mg/dL
Ca [6]: 10.4 mg/dL
Cl [6]: 105.2 meq/L
DBIL [6]: 0.1 mg/dL
GLC [6]: 178.4 mg/dL
IP [6]: 5.9 mg/dL
K [6]: 3.7 meq/L
LDH [6]: 214.2 IU/L
Na [6]: 141.8 meq/L
PL [6]: 118.2 mg/dL
RALB [6]: 3.5 g/dL
TBIL [6]: 0.2 mg/dL
TC [6]: 45.8 mg/dL
TG [6]: 76.4 mg/dL
TP [6]: 5.3 g/dL
gamma-GTP [6]: 1 IU/L
A/G [7]: 1.9
ALP [7]: 959.2 IU/L
ALT [7]: 33.2 IU/L
AST [7]: 58 IU/L
BUN [7]: 18.8 mg/dL
CRE [7]: 0.4 mg/dL
Ca [7]: 10.2 mg/dL
Cl [7]: 103 meq/L
DBIL [7]: 0.1 mg/dL
GLC [7]: 189.8 mg/dL
IP [7]: 6.9 mg/dL
K [7]: 3.6 meq/L
LDH [7]: 196 IU/L
Na [7]: 142 meq/L
PL [7]: 135.8 mg/dL
RALB [7]: 3.5 g/dL
TBIL [7]: 0.2 mg/dL
TC [7]: 57.4 mg/dL
TG [7]: 80.2 mg/dL
TP [7]: 5.4 g/dL
gamma-GTP [7]: 0.8 IU/L
A/G [8]: 1.9
ALP [8]: 934.8 IU/L
ALT [8]: 34 IU/L
AST [8]: 62.4 IU/L
BUN [8]: 19.2 mg/dL
CRE [8]: 0.5 mg/dL
Ca [8]: 10 mg/dL
Cl [8]: 105.2 meq/L
DBIL [8]: 0.1 mg/dL
GLC [8]: 177 mg/dL
IP [8]: 5.6 mg/dL
K [8]: 3.5 meq/L
LDH [8]: 271.6 IU/L
Na [8]: 143 meq/L
PL [8]: 126.4 mg/dL
RALB [8]: 3.8 g/dL
TBIL [8]: 0.2 mg/dL
TC [8]: 49.2 mg/dL
TG [8]: 101.4 mg/dL
TP [8]: 5.8 g/dL
gamma-GTP [8]: 1 IU/L
